Measurements from patent US12102644B2, “Compounds and methods of promoting myelination” (Case Western Reserve University, priority 2019, dated 2024).
pIC50: −log10 of the molar value. Entries after “also recorded” stand apart in the source; their conditions may differ. Read-outs that look alike come from different tables or passages of the source.

Experiments:
rat CYP51 [1] = target: T1, rat CYP51 (Rattus norvegicus, UniProt Q64654); conditions: rat CYP51 enzymatic activity
T1 sequence (Q64654 1-503): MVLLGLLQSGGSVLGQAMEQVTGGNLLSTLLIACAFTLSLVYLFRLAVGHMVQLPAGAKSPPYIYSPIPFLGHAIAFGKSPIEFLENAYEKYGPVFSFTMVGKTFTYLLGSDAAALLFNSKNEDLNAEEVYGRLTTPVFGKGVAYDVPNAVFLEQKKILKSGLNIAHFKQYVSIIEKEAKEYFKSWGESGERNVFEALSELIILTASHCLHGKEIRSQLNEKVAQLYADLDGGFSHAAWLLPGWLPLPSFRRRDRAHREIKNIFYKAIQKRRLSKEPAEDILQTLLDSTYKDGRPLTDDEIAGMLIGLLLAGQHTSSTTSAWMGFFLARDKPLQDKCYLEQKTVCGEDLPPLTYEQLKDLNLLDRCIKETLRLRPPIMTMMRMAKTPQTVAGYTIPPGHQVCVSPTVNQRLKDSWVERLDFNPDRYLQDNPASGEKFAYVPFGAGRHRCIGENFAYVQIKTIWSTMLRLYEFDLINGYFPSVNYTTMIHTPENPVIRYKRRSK

[2] = test system: mouse epiblast stem cell-derived OPCs; test: In vitro OPC differentiation assay (percentage of MBP+ oligodendrocytes, high-content imaging); format: cell-based; conditions: for formation of MBP+ oligodendrocytes in combination with ketoconazole: co-treatment with ketoconazole 2.5 μM
Procedure: To rigorously assess effects of small molecule and genetic treatments on OPCs, all treatments were assayed in two batches of epiblast stem cell-derived OPCs, and key results were confirmed using mouse primary OPCs. OPCs were generated from two separate EpiSC lines, EpiSC5 (giving rise to OPC-5 OPCs) and 12901 (giving rise to OPC-1 OPCs). EpiSC-derived OPCs were obtained using in vitro differentiation protocols and culture conditions described previously. To ensure uniformity throughout all in vitro screening experiments, EpiSC-derived OPCs were sorted to purity by fluorescence activated cell sorting at passage five with conjugated CD 140a-APC (eBioscience, 17-1401; 1:80) and NG2-AF488 (Millipore, AB[…]; 1:100) antibodies. Sorted batches of OPCs were expanded and frozen down in aliquots. OPCs were thawed into growth conditions for one passage before use in further assays. Cultures were regularly tested and shown to be mycoplasma free. EpiSC-derived OPCs were grown and expanded in poly-ornithine (PO) and laminin-coated flasks with growth medium (DMEM/F12 supplemented with N2-MAX (R&D Systems), B-27 (ThermoFisher), GlutaMax (Gibco), FGF2 ([…], R&D systems, 233-FB-025) and PDGF-AA ([…], R&D systems, 233-AA-050) before harvesting for plating. The cells were seeded onto poly-D-[…]-well CellCarrier plates (PerkinElmer) coated with laminin (Sigma, L2020; 15 μg/ml) using multi-channel pipet. For the experiment, 800,000 cells/mL stock in differentiation medium (DMEM/F12 supplemented with N2-MAX and B-27) was prepared and stored on ice for 2 h. Then, 40,000 cells were seeded per well in differentiation medium and allowed to attach for 30 min before addition of drug. For dose-response testing of all molecules except sterols, a 1000× compound stock in dimethyl sulphoxide (DMSO) was added to assay plates with 0.1 μL solid pin multi-blot replicators (V & P Scientific; VP 409), resulting in a final primary screening concentration of 1×. Sterols were added to cells as an ethanol solution (0.2% final ethanol concentration). Positive control wells (ketoconazole, 2.5 μM) and DMSO vehicle controls were included in each assay plate. Cells were incubated under standard conditions (37° C., 5% CO2) for 3 days and fixed with 4% paraformaldehyde (PFA) in phosphate buffered saline (PBS) for 20 min. Fixed plates were washed with PBS (200 μL per well) twice, permeabilized with 0.1% Triton X-100 and blocked with 10% donkey serum (v/v) in PBS for 40 min. Then, cells were labelled with MBP antibodies (Abcam, ab7349; 1:200) for 16 h at 4° C. followed by detection with Alexa Fluor conjugated secondary antibodies (1:500) for 45 min. Nuclei were visualized by DAPI staining (Sigma; 1 μg/ml). During washing steps, PBS was added using a multi-channel pipet and aspiration was performed using Biotek EL406 washer dispenser (Biotek) equipped with a 96-well aspiration manifold. Plates were imaged on the Operetta High Content Imaging and Analysis system (PerkinElmer) and a set of 6 fields captured from each well resulting in an average of 1200 cells being scored per well. Analysis (PerkinElmer Harmony and Columbus software) began by identifying intact nuclei stained by DAPI; that is, those traced nuclei that were larger than 300 μm^2 in surface area. Each traced nucleus region was then expanded by 50% and cross-referenced with the […] (MBP) stain to identify oligodendrocyte nuclei, and from this the percentage of oligodendrocytes was calculated. In some experiments, the total process length of MBP^+ oligodendrocytes was calculated as previously described.

EBP = target: T2, EBP (Mus musculus, UniProt P70245); test: EBP enzymatic assay (GC/MS); format: biochemical; conditions: small molecules 10 μM, zymostenol 25 μM, 2 h
T2 construct: active EBP was obtained from mouse microsomes; from tissue
T2 sequence (P70245 1-230): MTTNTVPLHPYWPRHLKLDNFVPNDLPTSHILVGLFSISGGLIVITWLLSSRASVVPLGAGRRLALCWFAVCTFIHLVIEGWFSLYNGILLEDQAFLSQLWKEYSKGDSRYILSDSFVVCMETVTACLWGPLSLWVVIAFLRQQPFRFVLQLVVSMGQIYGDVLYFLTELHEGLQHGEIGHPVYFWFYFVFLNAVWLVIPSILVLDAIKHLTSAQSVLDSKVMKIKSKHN

[3] = test system: sterol levels in OPCs (cholesterol biosynthesis pathway); test: GC/MS-based sterol profiling in OPCs; format: cell-based, mouse
rat CYP51 [4] = target: T1, rat CYP51; test: biochemical
[5] = 72 h, differentiation-permissive conditions

CC(=O)N1CCN(c2ccc(OC[C@@H]3CO[C@](Cn4ccnc4)(c4ccc(Cl)cc4Cl)O3)cc2)CC1 (stereo in doubt) [R-trans-Ketoconazole]
inhibition of mammalian CYP51 in vitro (rat CYP51 [1]): strikingly less effective at inhibiting mammalian CYP51

CC(=O)N1CCN(c2ccc(OC[C@H]3CO[C@@](Cn4ccnc4)(c4ccc(Cl)cc4Cl)O3)cc2)CC1 (stereo in doubt) [S-trans-Ketoconazole]
inhibition of mammalian CYP51 in vitro (rat CYP51 [1]): strikingly less effective at inhibiting mammalian CYP51

CC(C)CCC[C@@H](C)[C@H]1CC[C@H]2C3=C(CC[C@]12C)[C@@]1(C)CC[C@H](O)CC1=CC3 [8,9-dehydrocholesterol]
formation of MBP+ oligodendrocytes from OPCs [2, 5]: robustly enhanced oligodendrocyte formation

CC(C)CCC[C@@H](C)[C@H]1CC=C2C3=C(CC[C@@]21C)[C@@]1(C)CC[C@H](O)C[C@@H]1CC3 [14-dehydrozymostenol, cholesta-8,14-dien-j-ol]
formation of MBP+ oligodendrocytes from OPCs [2, 5]: enhanced the formation of MBP^+ oligodendrocytes

Cc1cc(C)c(CNC(=O)c2cc(-c3ccc(CN4CCOCC4)cc3)cc3c2cnn3C2CCCC2)c(=O)[nH]1 [EPZ005687]
inhibition of EBP enzymatic activity (EBP): directly inhibiting EBP enzymatic activity
accumulation of sterol intermediates in OPCs (enzyme inhibition in OPCs, e.g. EBP) ([3]; 24 h treatment): uniquely caused accumulation of zymosterol and zymostenol in OPCs
formation of MBP+ oligodendrocytes from OPCs [2, 5]: robustly enhanced oligodendrocyte formation

CC(C)=CCC[C@@H](C)[C@H]1CC=C2C3=C(CC[C@@]21C)[C@@]1(C)CC[C@H](O)C(C)(C)[C@@H]1CC3 [FF-MAS, 4,4-dimethyl-5α-cholesta-8,14,24-trien-3β-ol]
formation of MBP+ oligodendrocytes from OPCs [2, 5]: enhanced oligodendrocyte formation; also recorded: maximally potent enhancers of oligodendrocyte formation among the 8,9-unsaturated sterols tested

CC(C)CCC[C@@H](C)[C@H]1CC=C2C3=C(CC[C@@]21C)[C@@]1(C)CC[C@H](O)C(C)(C)[C@@H]1CC3 [MAS-412]
formation of MBP+ oligodendrocytes from OPCs [2, 5]: enhanced oligodendrocyte formation; also recorded: optimal efficacy and potency among all canonical cholesterol biosynthesis intermediates evaluated

CC(C)CCC[C@@H](C)[C@H]1CC[C@H]2C3=C(CC[C@]12C)[C@@]1(C)CC[C@H](O)C(C)(C)[C@@H]1CC3 [MAS-414]
formation of MBP+ oligodendrocytes from OPCs [2, 5]: enhanced oligodendrocyte formation; also recorded: optimal efficacy and potency among all canonical cholesterol biosynthesis intermediates evaluated

C=CCN(C)CCCCCCOc1ccc(C(=O)c2ccc(Br)cc2)c(F)c1 [Ro 48-8071]
reduction in lanosterol levels relative to ketoconazole alone ([3]; co-treatment ketoconazole 2.5 μM + Ro 48-8071 11 nM, 24 h): 90%
formation of MBP+ oligodendrocytes from OPCs [2, 5]: little impact
total cell number (DAPI+ nuclei) ([2]; 3 d differentiation assay): little impact
formation of MBP+ oligodendrocytes in combination with ketoconazole ([2]; 72 h): completely suppressed ketoconazole's pro-myelinating effects

CC(C)=CCC[C@@H](C)[C@H]1CC[C@H]2C3=C(CC[C@]12C)[C@@]1(C)CC[C@H](O)C(C)(C)C1CC3 (some centres unmarked) [T-MAS]
formation of MBP+ oligodendrocytes from OPCs [2, 5]: enhanced oligodendrocyte formation

CN1[C@@H]2CC[C@H]1C[C@@H](OC(c1ccccc1)c1ccccc1)C2 [benztropine, Benztropine]
inhibition of EBP enzymatic activity (EBP): clear inhibition
accumulation of sterol intermediates in OPCs (enzyme inhibition in OPCs, e.g. EBP) ([3]; 24 h treatment): induced accumulation of zymostenol and zymosterol and decreased basal sterol levels
formation of MBP+ oligodendrocytes in combination with ketoconazole ([2]; 72 h): did not enhance differentiation above levels seen for ketoconazole alone

C=C(c1ccc(C(=O)O)cc1)c1cc2c(cc1C)C(C)(C)CCC2(C)C [bexarotene, Bexarotene]
accumulation of sterol intermediates in OPCs (enzyme inhibition in OPCs, e.g. EBP) ([3]; 24 h treatment): minimal effects on sterol levels

CC(C)CCC[C@@H](C)[C@H]1CC[C@H]2[C@@H]3CC=C4C[C@@H](O)CC[C@]4(C)[C@H]3CC[C@]12C [cholesterol, Cholesterol]
formation of MBP+ oligodendrocytes from OPCs [2, 5]: ineffective; also recorded: had no effect on OPCs

CN1CCC[C@@H]1CCO[C@](C)(c1ccccc1)c1ccc(Cl)cc1 [clemastine, Clemastine]
formation of MBP+ oligodendrocytes in combination with ketoconazole ([2]; 72 h): did not enhance differentiation above levels seen for ketoconazole alone

Clc1ccccc1C(c1ccccc1)(c1ccccc1)n1ccnc1 [clotrimazole, Clotrimazole]
pIC50 (rat CYP51 [4]): 6.15 to 6.52

OC(Cn1cncn1)(Cn1cncn1)c1ccc(F)cc1F [fluconazole, Fluconazole]
inhibition of mammalian CYP51 in vitro (rat CYP51 [1]): did not inhibit mammalian CYP51 in vitro

C[C@]12CC[C@@H]3c4ccc(O)cc4C[C@@H](CCCCCCCCC[S+]([O-])CCCC(F)(F)C(F)(F)F)[C@H]3[C@@H]1CC[C@@H]2O (some centres unmarked) [fulvestrant, Fulvestrant]
sterol profile in OPCs at the screening dose (enzyme targeted) ([3]; 2 μM, 24 h): targeted CYP51

OCCOCCN1CCN(C(c2ccccc2)c2ccc(Cl)cc2)CC1 (centres unmarked) [hydroxyzine, Hydroxyzine]
inhibition of EBP enzymatic activity (EBP): directly inhibiting EBP enzymatic activity

CC(C)=CCC[C@@H](C)[C@H]1CC[C@@]2(C)C3=C(CC[C@]12C)[C@@]1(C)CC[C@H](O)C(C)(C)[C@@H]1CC3 [lanosterol, Lanosterol]
formation of MBP+ oligodendrocytes from OPCs [2, 5]: enhanced formation of MBP^+ oligodendrocytes in a dose-responsive fashion

N[C@@H](Cc1cc(I)c(Oc2ccc(O)c(I)c2)c(I)c1)C(=O)O [liothyronine, Liothyronine]
accumulation of sterol intermediates in OPCs (enzyme inhibition in OPCs, e.g. EBP) [3]: minimal effects on sterol levels
formation of oligodendrocytes in combination with liothyronine ([2]; liothyronine 3 μM combined with sterol-modulating treatments, 72 h): additive effects on oligodendrocyte formation

OCCOc1ccc(/C(=C(/CCCl)c2ccccc2)c2ccccc2)cc1 [ospemifine, Ospemifene]
accumulation of sterol intermediates in OPCs (enzyme inhibition in OPCs, e.g. EBP) [3]: did not inhibit EBP
formation of MBP+ oligodendrocytes from OPCs [2]: had no effect on OPC differentiation

CN(C)CCOc1ccc(/C(=C(/CCCl)c2ccccc2)c2ccccc2)cc1 [toremifene, Toremifene]
accumulation of sterol intermediates in OPCs (enzyme inhibition in OPCs, e.g. EBP) ([3]; 24 h treatment): inhibited EBP
formation of MBP+ oligodendrocytes from OPCs [2, 5]: enhanced MBP^+ oligodendrocyte generation over a wide dose range

CC(C)CCC[C@@H](C)[C@H]1CC[C@H]2C3=C(CC[C@]12C)[C@@]1(C)CC[C@H](O)C[C@@H]1CC3 [zymostenol, Zymostenol]
formation of MBP+ oligodendrocytes from OPCs [2, 5]: enhanced the formation of MBP^+ oligodendrocytes; also recorded: enhanced oligodendrocyte formation

methyl-β-cyclodextrin
cholesterol levels in OPCs ([3]; methyl β-cyclodextrin 1 mM for 30 min): reductions in cholesterol levels comparable to pathway inhibitor treatment
formation of MBP+ oligodendrocytes from OPCs [2, 5]: had no effect on oligodendrocyte formation
